Results reported in the NIST ThermoML archive (doi:10.1016/j.jct.2007.02.009).
± gives the expanded uncertainty stated by the source.

Legend:
[1] = Molar enthalpy of transition or fusion; conditions: Crystal; Adiabatic calorimetry
[2] = Crystal; Adiabatic calorimetry

CN(C)C=O [dimethylformamide]
Molar enthalpy of transition or fusion [1]: 8.95 ± 0.13 kJ/mol
Triple point temperature [2]: 212.86 ± 0.11 K
